Here are results for two compounds from article PMC12552953, “SA-XV, a 15-amino acid fragment of host defense peptide S100A12, targets mitochondria and is protective against fungal infections” (The Journal of Biological Chemistry, 2025).

A word on the MIC90: it is the lowest concentration that inhibits either 90% of growth or 90% of the strains tested, depending on the study. Usually IC50 stands for the concentration needed to halve the response being measured. Lower therefore signals greater potency. Broadly, the half-life is how long it takes for the measured level to halve.

In one data set the test system is Candida albicans. In kind it is cell-based. The settings on record: 48 h. The procedure:
(§1) The ocular clinical isolates of F. solani (n = 5) and C. albicans (n = 5) were obtained from Jhaveri Microbiology Centre, LVPEI, India. The isolates were grown at 29 °C in Sabouraud dextrose broth (SDB; Himedia) for 48 h. Fusarium conidia (spores) were harvested as described before ([69]), centrifuged at 8000 rpm for 15 min to pellet the conidia, washed in 10 mM phosphate buffer (pH 7.4) twice, and resuspended in the same. Candida was grown in SDB overnight, centrifuged, washed, and resuspended similarly. F. solani and C. albicans (1 × 10^4 conidia) were grown in the presence or absence of different concentrations of SA-XV in SDB in a 96-well microtiter plate and incubated at 29 °C for 24 h. Negative controls consisting of fungus only and a positive control consisting of fungus treated with AmpB (55 μM) were incubated simultaneously. The culture was then diluted accordingly and plated in potato dextrose agar (PDA) plates and incubated further for 24 h. The effect of the peptide was determined by quantifying the CFUs on the PDA plates. The effect of SA-XV on A. flavus was also determined similarly. All the experiments were performed at least thrice and in triplicate.

The test system of the next data set is Fusarium solani. The format is cell-based. Conditions: 48 h. The procedure: as §1
Data set [1] relates to Fusarium spp. ocular clinical isolates. In kind it is cell-based. The settings on record: 48 h. As to the method: as §1
In data set [2] the test system is C. albicans ocular clinical isolates. The format is cell-based, Candida albicans. Conditions: 48 h. The procedure:
as §1

The subject of the next data set is C. albicans biofilm. In kind it is cell-based, Candida albicans. The settings on record: 24 h, 60 μM.
A short description of data set [3]: in vitro. The format is cell-based, human. The settings on record: human. The procedure:
(§2) Supplementary experimental procedures
(§3) Cell culture and in vitro scratch assay
(§4) Aldrich, St. Louis, MO) as described earlier (3). In brief, cells (2x10^4 cells/well) were seeded into 96 well plates and cultured overnight. Cells were treated with different concentration of […]
(§5) reader SpectraMax M3 (Softmax Pro 6.3). […]

The test system of data set [4] is human corneal epithelial cells (HCEC). As to the kind of experiment: in vitro. In kind it is cell-based. As to the method:
as §2, §3, §4, §5

In data set [5] the test system is peripheral blood mononuclear cells (PBMC). In kind it is cell-based. As to the method:
as §2, §3, §4, §5

In data set [6] the test system is sinonasal epithelial cells (SNEC). In kind it is cell-based. The procedure: as §2, §3, §4, §5
A further data set relates to chorioallantoic membrane. Further details: species or system hen. As to the method:
as §2
Cell culture and in vitro scratch assay […]
SA-XV was added directly onto the chorioallantoic
M sodium hydroxide solution.

The next data set has as its system C. albicans. In kind it is cell-based, Candida albicans. As to the method: Fusarium spp. or Candida spp. (1 × 10^4 conidia) were incubated with 60 μM of FITC-SA-XV at 4 °C or 29 °C or different time points in SDB. The conidia were then washed three times with Milli-Q water and fixed using 4% paraformaldehyde. In some experiments, DAPI (Vectashield) or MitoTracker (Invitrogen) were used to stain specific cell organelles. In a different experiment, cytochrome c was detected in peptide-treated or untreated cells by incubating with anti–cytochrome c antibody (1:100 dilution; BioLegend), followed by Alexa Fluor 488 secondary antibody (1:1000 dilution; Thermo Fisher Scientific). In a separate experiment, the spores were incubated with SA-XV for 4 h in the presence or absence of FD (SR LifeScience Solution) of different molecular weights, washed with Milli-Q water, and fixed using 4% paraformaldehyde. The conidia were imaged using a 63× objective in a confocal microscope (LSM 880; Zeiss).

For data set [7] the following is noted: increased concentration of SA-XV.
Experimental: Fungal model membrane mimics composing 5:4:3 POPC/POPE/ERG were created following the standard protocol. […] The lipid film was created after drying in a stream of nitrogen gas and lyophilizing overnight. The lipid film was then hydrated with 70 mM calcein dissolved in 10 mM Tris buffer (pH 7.4), followed by vigorous vortexing for 30 min and subjecting to five freeze–thaw cycles in liquid nitrogen and lukewarm water to obtain the dye-entrapped vesicles. The vesicles were then passed through a 100-nm polycarbonate membrane filter stacked in a mini extruder (Avanti Polar Lipids) set up to obtain LUVs. […]
Dye-encapsulated liposomes were suspended in an extravesicular buffer containing 10 mM Tris buffer and 100 mM NaCl (pH 7.4). The leakage of calcein caused by liposome disruption was analyzed by fluorescence emission at 519 nm using a JASCO F-8500 fluorescence spectrophotometer. […] S100A12 was added at functional concentrations, and enhancement in fluorescence was measured. […] Percentage leakage was calculated using the equation. […]
where, F0, F, and FT denote the basal fluorescence intensity, fluorescence intensity after addition of peptides, and maximum fluorescence intensity obtained after addition of 0.1% Triton X-100, respectively.
The conditions of data set [8]: peptide-free 41.6 ppm.
Experimental: A single 90° pulse ^31P solid-state NMR experiment was performed on an Agilent NMR spectrometer (DD2) equipped with a 4 mm MAS HXY Solid Probe. Resonance frequencies were 699.88 MHz and 283.31 MHz for ^1H and ^31P, respectively. The TPPM ^1H-decoupled condition was used. LUVs were kept in a diameter of 4 mm Pyrex glass tube sealed with parafilm at an ambient temperature. ^31P spectra were collected with 512∼1000 scans and a recycle delay of 2 s. The spectra were referenced externally to 85% phosphoric acid (0 ppm).
^31P solid-state NMR experiments were performed using the Agilent NMR spectrometer (DD2) functioning at the resonance frequency of 283.31 MHz for ^31P and 699.88 MHz for ^1H, equipped with a 4 mm MAS HXY Solid Probe. MLVs were prepared by dissolving POPC, POPE, and ERG (5:4:3) in chloroform to obtain a stock of 5 mg/ml. The lipid mixtures were dried under nitrogen gas, lyophilized overnight followed by dissolving the lipid film in Tris buffer (pH 7.4), and hydrated for 1 h by vortexing occasionally and freeze–thawing five times. A single 90◦ pulse and 24 kHz TPPM proton decoupling were used. The π/2 pulse lengths were set at 6.8 μs for the ^31P nucleus. MLVs were kept in a 4 mm Pyrex glass tube, which was fit into the MAS probe, and sealed with parafilm. […] MestReNova software (version 8.1) with 250 Hz line broadening was used for spectra processing.
For data set [9] the following is noted: n = 3.
Data set [10] can be described thus: in vitro. Conditions: 25% fetal bovine serum in RPMI media.
Experimental: mentioned previously (5).
supplemented with 25% FBS at 37 °C for 15 min. 100 µl aliquots were taken at different time
intervals (0, 30, 60, 120, 180, and 240 min). 200 µl of 96% ethanol was added to precipitate the
serum followed by centrifugation at 12000 x g for 2 min. 20 µl of the supernatant was subjected
to a LC-20AT reverse phase HPLC system (SHIMADZU, Japan) equipped with Phenomenix
C18 column (250x10 mm, pore size 100 Å, particle size 5 µm), at room temperature, using
acetonitrile and water with 0.1 % TFA as the solvents. A flow rate of 1ml/min was maintained.
The percentage of peptide remaining in the supernatant at different time intervals were analysed
by peak integration using SPINCHROME CFR software, and the area obtained was normalized with respect to the free peptide.
The test system of data set [11] is T7 RNA polymerase, plasmid DNA. As to the kind of experiment: In vitro transcription assay. In kind it is biochemical. The settings on record: 2 h, 37 °C, agarose gel. As to the method:
In vitro transcription assay was done using the commercial kit Riboprobe System-T7 (Promega), according to the instructions for positive control samples but adding different concentrations of peptide to the reactions. As a negative control, the DNA template was omitted from the reaction mix. After 2 h of incubation at 37 °C, samples were run in a 1.2% agarose gel in TAE buffer and imaged using the Gel Doc System (Bio-Rad).

The test system of a further data set is F. solani. Nature of the data set: Murine model of F. solani keratitis. Conditions: 48 h postinfection; SA-XV at 0 and 6 h or 6 and 18 h, AmpB at 0 and 6 h.

Read-outs that look alike come from different tables or passages of the source. Where no end group is shown, it is not given here.

Experimental for F. solani: C57BL/6 mice (6–8 weeks old) were anesthetized by intraperitoneal injection using ketamine (8.7 mg/ml) and xylazine (0.5 mg/ml) at a dose of 120 μl/g body weight. While anesthetized, the corneal epithelium was abraded with three parallel vertical and horizontal scratches with a 26-gauge needle, and F. solani (10^7 conidia in 2.5 μl) were added in one eye, whereas the fellow eye received 1× PBS (n = 5). […] One more group of mice (n = 5) was infected with F. solani followed by topical application of AmpB (5 μg) at 0 and 6 h postinfection. Mice were euthanized and examined under a stereomicroscope for density and area of corneal opacification or ulceration 48 h postinfection and photographed using a digital camera. Clinical scores for the opacity were determined in a blinded fashion according to the scale earlier reported ([90]), eyes were enucleated and homogenized using a tissue homogenizer (Ez-Lyzer; Genetix Biotech) in sterile 1× PBS, and homogenates were plated on PDA plates for determining CFUs.

For the compound VAIALKAAHYHTHKE [SA-XV], the MIC90 in the data set on Candida albicans and with Fusarium solani was 15 µM each time. Also, the “% Growth Inhibition by SA-XV (60 μM)” value in [1] and in data set [2] was 99.99% throughout. The “inhibition of biofilm formation” value in the data set with C. albicans biofilm is reported as “more than 70%”. Besides, the midpoint of inhibition in “in vitro [3]”, the IC50 at 24 h, lay at 302 µM. In addition, the cytotoxicity result in [4], in data set [5] and in data set [6] was “did not show any substantial cytotoxicity” each time. Moreover, the irritation effect result in the data set with chorioallantoic membrane is given as “nonirritant”. Moreover, in the data set with C. albicans, the “translocation into fungal cells” value is on record as “translocates”. In the data set on HCECs, the “penetration into HCECs” value is “to some extent”. For the same compound, the “dye leakage from fungal-membrane liposomes” value in data set [7] is listed as “Increased dye leakage”. The “chemical shift anisotropy span” value is reported as 44.6 ppm in data set [8] (1 mol% peptide) and 46.4 ppm in data set [8] (3 mol% peptide). Further, the “histopathology of corneal sections” value in [9] is given as “no damages or abnormalities”. The corneal findings entry in [9] (peptide four times at 3 h interval for 2 days, no edema or hyperemia) is listed as “no corneal erosions or opacity”. Besides, the half-life at 1 mg/ml in “in vitro [10]” was over 3 h.
As for `C[C@@H]1[C@H](O)[C@@H](C)/C=C/C=C/C=C/C=C/C=C/C=C/C=C/[C@H](O[C@@H]2O[C@H](C)[C@@H](O)[C@H](N)[C@@H]2O)C[C@@H]2O[C@](O)(C[C@@H](O)C[C@@H](O)[C@H](O)CC[C@@H](O)C[C@@H](O)CC(=O)O[C@H]1C)C[C@H](O)[C@H]2C(=O)O` [AmpB, amphotericin B], in data set [11], the “RNA synthesis in vitro” value is on record as “did not show any appreciable effect”. In addition, the corneal opacification entry in the data set with F. solani is recorded as “Distinct reduced opacification”.
